According to US20220411380A1, “ACID ADDITION SALT OF RORy REGULATOR” (JIANGSU HENGRUI MEDICINE CO., LTD., priority 2019, published 2022):

Columns and labels:
Type in all cases: physicochemical
[1] = DVS (dynamic vapor sorption) characterization; conditions: for Crystalline form before and after DVS (XRPD comparison): 0-95% humidity change; for DVS weight change / Hygroscopicity: 25° C., 20.0% RH to 80.0% RH; for Hygroscopicity: DVS
Method: DVS refers to dynamic vapor sorption: The measurement was conducted with a Surface Measurement Systems advantage 2 at 25° C., starting from 50% humidity in humidity range of 0%-95% with a step size of 10%. The judging criterion was that the mass change of each gradient dM/dT is less than 0.002 and TMAX is less than 360 min in two circles.

[2] = Long-term/accelerated stability study of crystalline form α of hydrochloride and crystalline form I of hydrobromide
Method: The crystalline form α of the hydrochloride of the compound of formula II was let stand in conditions of 25° C./60% RH and 40° C./75% RH to examine its stability.
The crystalline form I of the hydrobromide of the compound of formula II was let stand in conditions of 25° C./60% RH and 40° C./75% RH to examine its stability.

[3] = Influencing factor study of crystalline form α of hydrochloride and crystalline form I of hydrobromide
Method: Sample of the crystalline form α of the hydrochloride and the crystalline form I of the hydrobromide of the compound of formula II were let stand open to examine the stability of the samples in conditions of illumination (4500 Lux), high temperature (40° C. and 60° C.) and high humidity (RH 75% and RH 92.5%) in a period of 30 days.

[4] = accelerated test condition, 70% humidity
[5] = extreme condition, 90% humidity
[6] = normal storage condition, 60% humidity/25° C.

Cl.NC(=O)C[C@H](c1ccc(S(=O)(=O)CC2CC2)cc1)c1nc2cc(-c3ccccc3OC(F)F)c(Cl)cc2[nH]1 [Crystalline form α of hydrochloride of compound of formula I]
Crystalline form before and after DVS (XRPD comparison) [1]: crystalline form did not change during DVS | DVS weight change [1]: 0.549% | Hygroscopicity [1]: slightly hygroscopic | Vapor sorption [1, 4]: about 0.574% | Vapor sorption [1, 5]: about 1.040% | Vapor sorption [1, 6]: about 0.463% | Chiral purity (%) ([2]; 25° C., 60% RH, Day 7): 99.131% | Color and appearance ([2]; 25° C., 60% RH, Day 7): White solid | Crystalline form ([2]; 25° C., 60% RH, Day 7): Not changed | Main peak purity (%) ([2]; 25° C., 60% RH, Day 7): 96.915% | Chiral purity (%) ([2]; 25° C., 60% RH, Day 14): 99.111% | Color and appearance ([2]; 25° C., 60% RH, Day 14): White solid | Crystalline form ([2]; 25° C., 60% RH, Day 14): Not changed | Main peak purity (%) ([2]; 25° C., 60% RH, Day 14): 96.831% | Chiral purity (%) ([2]; 25° C., 60% RH, Month 1): 99.225% | Chloride ion content (%) ([2]; 25° C., 60% RH, Month 1): 5.75% | Color and appearance ([2]; 25° C., 60% RH, Month 1): White solid | Crystalline form ([2]; 25° C., 60% RH, Month 1): Not changed | Main peak purity (%) ([2]; 25° C., 60% RH, Month 1): 96.906% | Chiral purity (%) ([2]; 25° C., 60% RH, Month 2): 99.332% | Chloride ion content (%) ([2]; 25° C., 60% RH, Month 2): 5.74% | Color and appearance ([2]; 25° C., 60% RH, Month 2): White solid | Crystalline form ([2]; 25° C., 60% RH, Month 2): Not changed | Main peak purity (%) ([2]; 25° C., 60% RH, Month 2): 96.883% | Chiral purity (%) ([2]; 25° C., 60% RH, Month 3): 99.239% | Color and appearance ([2]; 25° C., 60% RH, Month 3): White solid | Crystalline form ([2]; 25° C., 60% RH, Month 3): Not changed | Main peak purity (%) ([2]; 25° C., 60% RH, Month 3): 96.749% | Chiral purity (%) ([2]; 25° C., 60% RH, Month 6): 99.187% | Chloride ion content (%) ([2]; 25° C., 60% RH, Month 6): 5.85% | Color and appearance ([2]; 25° C., 60% RH, Month 6): White solid | Crystalline form ([2]; 25° C., 60% RH, Month 6): Not changed | Main peak purity (%) ([2]; 25° C., 60% RH, Month 6): 96.170% | Chiral purity (%) ([2]; 40° C., 75% RH, Day 7): 99.137% | Color and appearance ([2]; 40° C., 75% RH, Day 7): White solid | Crystalline form ([2]; 40° C., 75% RH, Day 7): Not changed | Main peak purity (%) ([2]; 40° C., 75% RH, Day 7): 96.906% | Chiral purity (%) ([2]; 40° C., 75% RH, Day 14): 99.104% | Color and appearance ([2]; 40° C., 75% RH, Day 14): White solid | Crystalline form ([2]; 40° C., 75% RH, Day 14): Not changed | Main peak purity (%) ([2]; 40° C., 75% RH, Day 14): 96.902% | Chiral purity (%) ([2]; 40° C., 75% RH, Month 1): 99.206% | Chloride ion content (%) ([2]; 40° C., 75% RH, Month 1): 5.44% | Color and appearance ([2]; 40° C., 75% RH, Month 1): White solid | Crystalline form ([2]; 40° C., 75% RH, Month 1): Not changed | Main peak purity (%) ([2]; 40° C., 75% RH, Month 1): 96.846% | Chiral purity (%) ([2]; 40° C., 75% RH, Month 2): 99.292% | Chloride ion content (%) ([2]; 40° C., 75% RH, Month 2): 5.86% | Color and appearance ([2]; 40° C., 75% RH, Month 2): White solid | Crystalline form ([2]; 40° C., 75% RH, Month 2): Not changed | Main peak purity (%) ([2]; 40° C., 75% RH, Month 2): 96.780% | Chiral purity (%) ([2]; 40° C., 75% RH, Month 3): 99.149% | Color and appearance ([2]; 40° C., 75% RH, Month 3): White solid | Crystalline form ([2]; 40° C., 75% RH, Month 3): Not changed | Main peak purity (%) ([2]; 40° C., 75% RH, Month 3): 96.664% | Chiral purity (%) ([2]; 40° C., 75% RH, Month 6): 98.972% | Chloride ion content (%) ([2]; 40° C., 75% RH, Month 6): 5.98% | Color and appearance ([2]; 40° C., 75% RH, Month 6): White solid | Crystalline form ([2]; 40° C., 75% RH, Month 6): Not changed | Main peak purity (%) ([2]; 40° C., 75% RH, Month 6): 95.990% | Chiral purity (%) ([2]; Initial, 0): 99.14% | Chloride ion content (%) ([2]; Initial, 0): 5.75% | Color and appearance ([2]; Initial, 0): White solid | Crystalline form ([2]; Initial, 0): Crystalline | Main peak purity (%) ([2]; Initial, 0): 96.925% | Stability (conclusion of long-term/accelerated study) ([2]; long term and acceleration, 6 months): good physical and chemical stability | Chiral purity (%) ([3]; 40° C., 7 days): 99.131% | Color and appearance ([3]; 40° C., 7 days): White solid | Crystalline form ([3]; 40° C., 7 days): Not changed | Main peak purity (%) ([3]; 40° C., 7 days): 96.915% | Chiral purity (%) ([3]; 40° C., 14 days): 99.115% | Color and appearance ([3]; 40° C., 14 days): White solid | Crystalline form ([3]; 40° C., 14 days): Not changed | Main peak purity (%) ([3]; 40° C., 14 days): 96.921% | Chiral purity (%) ([3]; 40° C., 30 days): 99.207% | Chloride ion content (%) ([3]; 40° C., 30 days): 5.75% | Color and appearance ([3]; 40° C., 30 days): White solid | Crystalline form ([3]; 40° C., 30 days): Not changed | Main peak purity (%) ([3]; 40° C., 30 days): 96.824% | Chiral purity (%) ([3]; 60° C., 7 days): 99.136% | Color and appearance ([3]; 60° C., 7 days): White solid | Crystalline form ([3]; 60° C., 7 days): Not changed | Main peak purity (%) ([3]; 60° C., 7 days): 96.884% | Chiral purity (%) ([3]; 60° C., 14 days): 99.106% | Color and appearance ([3]; 60° C., 14 days): White solid | Crystalline form ([3]; 60° C., 14 days): Not changed | Main peak purity (%) ([3]; 60° C., 14 days): 96.907% | Chiral purity (%) ([3]; 60° C., 30 days): 99.232% | Chloride ion content (%) ([3]; 60° C., 30 days): 5.65% | Color and appearance ([3]; 60° C., 30 days): White solid | Crystalline form ([3]; 60° C., 30 days): Not changed | Main peak purity (%) ([3]; 60° C., 30 days): 96.814% | Chiral purity (%) ([3]; 75% RH, 7 days): 99.138% | Color and appearance ([3]; 75% RH, 7 days): White solid | Crystalline form ([3]; 75% RH, 7 days): Not changed | Main peak purity (%) ([3]; 75% RH, 7 days): 96.916% | Chiral purity (%) ([3]; 75% RH, 14 days): 99.130% | Color and appearance ([3]; 75% RH, 14 days): White solid | Crystalline form ([3]; 75% RH, 14 days): Not changed | Main peak purity (%) ([3]; 75% RH, 14 days): 96.908% | Chiral purity (%) ([3]; 75% RH, 30 days): 99.220% | Chloride ion content (%) ([3]; 75% RH, 30 days): 5.68% | Color and appearance ([3]; 75% RH, 30 days): White solid | Crystalline form ([3]; 75% RH, 30 days): Not changed | Main peak purity (%) ([3]; 75% RH, 30 days): 96.903% | Chiral purity (%) ([3]; 92.5% RH, 7 days): 99.132% | Color and appearance ([3]; 92.5% RH, 7 days): White solid | Crystalline form ([3]; 92.5% RH, 7 days): Not changed | Main peak purity (%) ([3]; 92.5% RH, 7 days): 96.912% | Chiral purity (%) ([3]; 92.5% RH, 14 days): 99.111% | Color and appearance ([3]; 92.5% RH, 14 days): White solid | Crystalline form ([3]; 92.5% RH, 14 days): Not changed | Main peak purity (%) ([3]; 92.5% RH, 14 days): 96.908% | Chiral purity (%) ([3]; 92.5% RH, 30 days): 99.211% | Chloride ion content (%) ([3]; 92.5% RH, 30 days): 5.67% | Color and appearance ([3]; 92.5% RH, 30 days): White solid | Crystalline form ([3]; 92.5% RH, 30 days): Not changed | Main peak purity (%) ([3]; 92.5% RH, 30 days): 96.880% | Chiral purity (%) ([3]; 4500 Lux, 7 days): 99.137% | Color and appearance ([3]; 4500 Lux, 7 days): White solid | Crystalline form ([3]; 4500 Lux, 7 days): Not changed | Main peak purity (%) ([3]; 4500 Lux, 7 days): 96.911% | Chiral purity (%) ([3]; 4500 Lux, 14 days): 99.139% | Color and appearance ([3]; 4500 Lux, 14 days): White solid | Crystalline form ([3]; 4500 Lux, 14 days): Not changed | Main peak purity (%) ([3]; 4500 Lux, 14 days): 96.911% | Chiral purity (%) ([3]; 4500 Lux, 30 days): 99.216% | Chloride ion content (%) ([3]; 4500 Lux, 30 days): 5.71% | Color and appearance ([3]; 4500 Lux, 30 days): White solid | Crystalline form ([3]; 4500 Lux, 30 days): Not changed | Main peak purity (%) ([3]; 4500 Lux, 30 days): 96.810% | Chiral purity (%) ([3]; Initial, 0 days): 99.14% | Chloride ion content (%) ([3]; Initial, 0 days): 5.75% | Color and appearance ([3]; Initial, 0 days): White solid | Crystalline form ([3]; Initial, 0 days): Crystalline | Main peak purity (%) ([3]; Initial, 0 days): 96.925% | Stability (conclusion of influencing factor study) ([3]; illumination, 40° C. and 60° C., high humidities of 75% and 92.5%): good physical and chemical stabilities

NC(=O)C[C@H](c1ccc(S(=O)(=O)CC2CC2)cc1)c1nc2cc(-c3ccccc3OC(F)F)c(Cl)cc2[nH]1.O=C(O)/C=C\C(=O)O
Crystalline form before and after DVS (XRPD comparison) [1]: crystalline form did not change during DVS | DVS weight change [1]: 1.731% | Hygroscopicity [1]: slightly hygroscopic | Vapor sorption [1, 4]: about 1.809% | Vapor sorption [1, 5]: about 3.077% | Vapor sorption [1, 6]: about 1.438%

Cl.NC(=O)C[C@H](c1ccc(S(=O)(=O)CC2CC2)cc1)c1nc2cc(-c3ccccc3OC(F)F)c(Cl)cc2[nH]1 [Crystalline form β of hydrochloride of compound of formula I]
Crystalline form before and after DVS (XRPD comparison) [1]: crystalline form changed during DVS | DVS weight change [1]: 1.235% | Hygroscopicity [1]: slightly hygroscopic | Vapor sorption [1, 4]: about 1.954% | Vapor sorption [1, 5]: about 2.534% | Vapor sorption [1, 6]: about 1.755%
